The source made the active and inactive calls. The rule behind the calls is not given here.
Experiments:
[1] = Selectivity index, ratio of IC50 for cytotoxicity against human WI-38 cells to IC50 for cytotoxicity against human A549 cells; type: toxicity, cell-based; details: WI-38 cells versus A549 cells, read-out: Ratio IC50
[2] = Selectivity index, ratio of IC50 for cytotoxicity against human WI-38 cells to IC50 for cytotoxicity against human NCI-H460 cells; type: toxicity, cell-based; details: WI-38 cells versus NCI-H460 cells, read-out: Ratio IC50
[3] = Cytotoxicity against human WI-38 cells incubated for 72 hrs by MTT assay; type: toxicity, cell-based
WI-38 = test: Cytotoxicity against human WI-38 cells by measuring effective concentration incubated for 72 hrs by MTT assay; type: toxicity, cell-based; details: wi-38, 72 h
A549 [4] = test: cells; details: Homo sapiens, A549, 72 h
Description: Cytotoxicity against human A549 cells incubated for 72 hrs by MTT assay

NCI-H460 = test: Cytotoxicity against human NCI-H460 cells incubated for 72 hrs by MTT assay; details: NCI-H460, 72 h
A549 [5] = test: Cytotoxicity against human A549 cells assessed as morphological damage incubated for 72 hrs by inverted phase contrast microscopic analysis; type: functional, cell-based
Calf thymus DNA [6] = test: Binding affinity to calf thymus DNA assessed as disruption of DNA by measuring increase in TB3+ fluorescence at 5 uM incubated for 24 hrs followed by biosensor TbCl3 addition by fluorescence spectrophotometric analysis; type: tissue-based; details: Bos taurus
Calf thymus DNA [7] = test: Binding affinity to calf thymus DNA assessed as disruption of DNA by measuring increase in TB3+ fluorescence upto 4 uM incubated for 24 hrs followed by biosensor TbCl3 addition by fluorescence spectrophotometric analysis; type: tissue-based; details: Bos taurus
Calf thymus DNA [8] = test: Binding affinity to calf thymus DNA assessed as disruption of DNA by measuring increase in TB3+ fluorescence at 35.3 nM incubated for 24 hrs followed by biosensor TbCl3 addition by fluorescence spectrophotometric analysis; type: tissue-based; details: Bos taurus
A549 [9] = test: Induction of cell cycle arrest in human A549 cells assessed as accumulation of aggregates at 0.089 uM incubated for 48 hrs by propidium iodide staining based immunocytometric analysis (reference value: 1.81 %); type: functional
A549 [10] = test: Induction of cell cycle arrest in human A549 cells assessed as accumulation of cells at G1 phase at 0.089 uM incubated for 48 hrs by propidium iodide staining based immunocytometric analysis (reference value: 44.75 %); type: functional
[11] = Antioxidant activity assessed as DPPH radical scavenging activity at 10 uM incubated for 30 mins by absorbance based assay relative to trolox; type: functional
Calf thymus DNA [12] = test: Binding affinity to calf thymus DNA assessed as disruption of DNA by measuring increase in TB3+ fluorescence at 24.6 nM incubated for 24 hrs followed by biosensor TbCl3 addition by fluorescence spectrophotometric analysis; type: tissue-based; details: Bos taurus
[13] = Antioxidant activity assessed as DPPH radical scavenging activity incubated for 30 mins by absorbance based assay; type: functional
A549 [14] = test: Induction of apoptosis in human A549 cells assessed as late apoptotic cells at 0.089 uM incubated for 48 hrs by annexin V-FITC/PI staining based flow cytometry (reference value: 0.28 %); type: functional
A549 [15] = test: Induction of apoptosis in human A549 cells assessed as necrotic cells at 0.089 uM incubated for 48 hrs by annexin V-FITC/PI staining based flow cytometry (reference value: 1.21 %); type: functional
A549 [16] = test: Induction of cell cycle arrest in human A549 cells assessed as accumulation of cells at S phase at 0.089 uM incubated for 48 hrs by propidium iodide staining based immunocytometric analysis (reference value: 36.94 %); type: functional
A549 [17] = test: Induction of cell cycle arrest in human A549 cells assessed as accumulation of cells at G2/M phase at 0.089 uM incubated for 48 hrs by propidium iodide staining based immunocytometric analysis (reference value: 18.31 %); type: functional
A549 [18] = test: Induction of apoptosis in human A549 cells assessed as early apoptotic cells at 0.089 uM incubated for 48 hrs by annexin V-FITC/PI staining based flow cytometry (reference value: 0.37 %); type: functional
A549 [19] = test: Induction of cell cycle arrest in human A549 cells assessed as accumulation of cell debris at 0.089 uM incubated for 48 hrs by propidium iodide staining based immunocytometric analysis (reference value: 2.25 %); type: functional
[20] = Antioxidant activity assessed as DPPH radical scavenging activity at 100 uM incubated for 30 mins by absorbance based assay (reference value: […] %); type: functional

IC50 (A549 [4]) | SMILES | selectivity ratio [1] | selectivity ratio [2] | IC50 at 72 h [3] | EC100 (WI-38) | IC50 (NCI-H460) | also measured
0.307 µM | O=C(c1ccccc1)[C@H]1[C@H](c2cn(-c3ccccc3)nc2-c2ccccc2)[C@@H]2CC3CCCCC3N2[C@]12C(=O)Nc1ccccc12 (some centres undefined) | 2.69 | 1.53 | 0.825 µM | 0.451 µM | 0.537 µM | 
0.096 µM | O=C(c1ccccc1[N+](=O)[O-])[C@H]1[C@H](c2cn(-c3ccccc3)nc2-c2ccccc2)[C@@H]2CC3CCCCC3N2[C@]12C(=O)Nc1ccc(Cl)cc12 (some centres undefined) |  |  | 0.294 µM | 0.094 µM | 1.34 µM | Activity (A549 [5]): Active; Activity (Calf thymus DNA [6]): Active; Activity (Calf thymus DNA [7]): Active; Activity (Calf thymus DNA [8]): Active
0.158 µM | O=C(c1ccc(Br)cc1)[C@H]1[C@H](c2cn(-c3ccccc3)nc2-c2ccccc2)[C@@H]2CC3CCCCC3N2[C@]12C(=O)Nc1ccccc12 (some centres undefined) | 2.95 | 0.64 | 0.466 µM | 0.271 µM | 0.725 µM | 
0.089 µM | O=C(c1ccc([N+](=O)[O-])cc1)[C@H]1[C@H](c2cn(-c3ccccc3)nc2-c2ccccc2)[C@@H]2CC3CCCCC3N2[C@]12C(=O)Nc1ccc(Cl)cc12 (some centres undefined) |  |  | 0.48 µM | 0.249 µM | 2.46 µM | Activity (A549 [9]): 1.96%; Activity (A549 [10]): 38.56%; Activity [11]: 60%; Activity (A549 [5]): Active; Activity (Calf thymus DNA [12]): Active; Activity [13]: Dose-Dependent Effect; Activity (Calf thymus DNA [6]): Active; Activity (A549 [14]): 15.13%; Activity (A549 [15]): 7.46%; Activity (Calf thymus DNA [7]): Active; Activity (A549 [16]): 33.28%; Activity (A549 [17]): 28.16%; Activity (A549 [18]): 25.72%; Activity (A549 [19]): 2.03%; Activity [20]: 88.4%
0.17 µM | O=C(c1ccccc1[N+](=O)[O-])[C@H]1[C@H](c2cn(-c3ccccc3)nc2-c2ccccc2)[C@@H]2CC3CCCCC3N2[C@]12C(=O)Nc1ccccc12 (some centres undefined) | 2.43 | 0.67 | 0.413 µM | 0.224 µM | 0.613 µM | 

Second part, the molecule before the results:

SMILES | IC50 (A549 [4]) | selectivity ratio [1] | selectivity ratio [2] | IC50 at 72 h [3] | EC100 (WI-38) | IC50 (NCI-H460) | also measured
CN1C[C@@H](c2cn(-c3ccccc3)nc2-c2ccccc2)[C@H](C(=O)c2ccc([N+](=O)[O-])cc2)[C@@]12C(=O)Nc1ccccc12 | 0.223 µM | 3.32 | 0.99 | 0.741 µM | 0.375 µM | 0.748 µM | 
CN1C[C@@H](c2cn(-c3ccccc3)nc2-c2ccccc2)[C@H](C(=O)c2ccccc2)[C@@]12C(=O)Nc1ccc(Cl)cc12 | 0.283 µM | 1.93 | 1.3 | 0.545 µM | 0.308 µM | 0.417 µM | 
CN1C[C@@H](c2cn(-c3ccccc3)nc2-c2ccccc2)[C@H](C(=O)c2ccc([N+](=O)[O-])cc2)[C@@]12C(=O)Nc1ccc(Cl)cc12 | 0.131 µM | 3.66 | 0.46 | 0.48 µM | 0.287 µM | 1.03 µM | 
COc1ccc2c(c1)[C@@]1(C(=O)N2)[C@@H](C(=O)c2ccc([N+](=O)[O-])cc2)[C@H](c2cn(-c3ccccc3)nc2-c2ccccc2)CN1C | 0.235 µM | 6.34 | 1.3 | 1.49 µM | 0.539 µM | 1.14 µM | 

Source: ChEMBL document CHEMBL5584324, “Exploiting spirooxindoles for dual DNA targeting/CDK2 inhibition and simultaneous mitigation of oxidative stress towards selective NSCLC therapy; synthesis, evaluation, and molecular modelling studies” (RSC Med Chem, 2024)
